Series [1] concerns THLE-5B cells. Kind of series: Anchorage-independent transformation (over-agar) assay in THLE-5B cells. Format: cell-based, human. As to conditions: 10 ng/ml EGF, inhibitor 0.01 μM to 1.0 μM, colonies counted after 14 days. How it is done:
Cells and Culture Conditions. The normal human liver epithelial cell line, THLE-5B, was kindly provided by Curtis Harris (NCI, National Institutes of Health, Bethesda, Md.). THLE-5B cells were propagated in DMEM/F-12 (1:1; Invitrogen, Carlsbad, Calif.) with 10% fetal bovine serum (MediaTech CellGro, Herndon, Va.), that was supplemented with 100 units/ml penicillin, […] streptomycin (both from Invitrogen), 10 μg/ml insulin, 10 μg/ml transferrin and 10 ng/ml selenium (ITS; Lonza, Walkersville, Md.). Primary human hepatocytes were isolated as described before and cultured in HMM media (Lonza). Cells were maintained at 37° C. in a humidified incubator with 5% CO2 in air.
Chemicals. Stock solutions of AG1478 (Invitrogen), erlotinib (Tarceva™; Genentech, South San Francisco, Calif.) and gefitinib (Iressa™; AstraZeneca, Wilmington, Del.) were prepared in DMSO and stored at −20° C. EGF (Sigma, St. Louis, Mo.) stock solution was prepared in 10 mM acetic acid and diluted in PBS.
Anchorage-Independent Transformation Assay. Because cells suspended in soft agar cannot be easily recovered, the inventors used the previously described over-agar assay which allows for the analysis of molecular events associated with tumor promoter-induced cell transformation under anchorage-independent conditions. Briefly, 1×10^4 THLE-5B cells or isolated human hepatocytes were plated onto 0.5% BME agar containing the indicated concentrations of EGF and inhibitors. The plates were cultured for 14 days, after which colonies of transformed cells were counted using a microscope. The results represent one experiment and are presented as the mean±standard deviation of colony counts made by three separate investigators. The experiments were repeated twice to ensure qualitatively similar results.

The test system of series [2] is THLE-5B cells. In words: Cell growth (MTT) assay in THLE-5B cells. Format: cell-based, human. As to conditions: inhibitor 0.01-1 μM; 72 h. How it is done:
Cell Growth Assay. Briefly, THLE-5B cells were plated in triplicate at a density of 4×10^4 cells/ml in a 24-well plate. After 24 h, cells were washed once with PBS and medium containing inhibitors at the indicated concentrations or vehicle control was added. After 72 h, the effects of each inhibitor on growth of the cells was measured by colorimetric 3-(4,5-dimethylthiazol-2-yl)-2,5-diphenyltetrazolium bromide (MTT; Sigma) assay. The absorbance at 562 nm was measured using a spectrophotometric plate reader (Emax; Molecular Devices) and the experiment was repeated twice to ensure qualitatively similar results for each inhibitor.

The subject of series [3] is HCC nodules. As to conditions: rat, DEN-induced cirrhosis; treatment during weeks 12-18; cited from earlier work.

Structures are written as SMILES. “Also recorded” adds a separate entry of the source.

For `COc1cc2ncnc(Nc3cccc(Cl)c3)c2cc1OC` [AG1478, 4-(3-Chloroanillino)-6,7-dimethoxyquinazoline], the “EGF mediated anchorage-independent transformation of THLE-5B cells” value in series [1] is given as “prevents EGF mediated anchorage-independent transformation; also recorded: inhibited”. Besides, the “cytotoxicity to THLE-5B cells as determined by MTT” value in series [2] was “not cytotoxic”.
On the same counts, the results for `C#Cc1cccc(Nc2ncnc3cc(OCCOC)c(OCCOC)cc23)c1` [Erlotinib] are “prevents EGF mediated anchorage-independent transformation; also recorded: inhibited” and “not cytotoxic”.
As to `COc1cc2ncnc(Nc3ccc(F)c(Cl)c3)c2cc1OCCCN1CCOCC1` [Gefitinib], the “EGF mediated anchorage-independent transformation of THLE-5B cells” value in series [1] was “inhibited”; in series [1] (listed as Gefitnib) it was “prevents EGF mediated anchorage-independent transformation”. Besides, the “cytotoxicity to THLE-5B cells as determined by MTT” value in series [2] is reported as “not cytotoxic”. Moreover, the “formation of HCC nodules” value in series [3] was “significantly reduced the formation of HCC nodules; also recorded: significantly reduced the formation of hepatocellular carcinoma nodules”.

The values are drawn from patent publication US8323896B2, “Epidermal growth factor (EGF) expression and/or polymorphisms thereof for predicting the risk of developing cancer” (The General Hospital Corporation, priority 2007, dated 2012).
